According to patent publication US20230302104A1, “TREATMENT AND/OR PREVENTION OF A DISEASE OR A SYNDROME RELATED TO A VIRUS INFECTION” (priority 2020, published 2023):

Assays:
[1] = system: SARS-CoV-2 spike pseudovirus entry in ACE2 overexpressing A549 human lung alveolar basal epithelium cells; format: cell-based
[2] = system: SARS-CoV-2 spike pseudotyped lentivirus entry in HeLa cells overexpressing TMPRSS2; format: cell-based; settings: 10 µM

Q: With plasma derived AAT as the substance, how does the “effect on SARS-CoV-2 pseudoviral entry in combination with IFN-beta-1a” value [1] read?
A: The value was “additive inhibitory effect”.

Q: What about the “inhibitory effect on SARS-CoV-2 pseudoviral cell-entry” value [2] of the same substance?
A: Its value is “no inhibitory effect”.

Q: For rhAAT, which SARS-CoV-2 pseudovirus entry [1] is on record?
A: Its SARS-CoV-2 pseudovirus entry is “inhibits viral entry of several viruses”.
